Laboratory results as given in PubChem BioAssay AID1963869 (Molecular Pharmacology Branch, DTP, NCI, 2024).
pIC50: −log10 of the molar value.

Tested on: KRAS patient-derived spheroids with HUVEC/MSC, viability
Assay: Anticancer human tumor 323965-272-R-J2-PDC patient-derived pancreatic carcinoma cell line growth inhibition [KRAS2]
Settings: for pIC50: curve of first compound; for viability, T/C: stronger effect = lower value
Text: Multicellular complex tumor spheroid response to RAS pathway inhibitors in combination with a targeted agents in patient-derived cell lines with oncogenic KRAS variants from multiple cancer types
A high-throughput screen of multi-cell type tumor spheroids was designed to identify active combinations of targeted small molecules and KRAS pathway inhibitors. Complex spheroids include a stromal component modeled by human endothelial cells (HUVEC) and fibroblasts modeled by human mesenchymal stem cells (MSCs). The concentration ranges selected for each drug and investigational agent were based upon clinically achievable concentrations if the clinical Cmax of the agent was known.
Compounds. The drugs and investigational agents: BI-3406 (NSC825286), BAY-293 (NSC824723), batoprotafib (TNO155; NSC825523), sotorasib (AMG 510; NSC818433), MRTX1257 (NSC819558), elimusertib (BAY 1895344; NSC800525), molibresib (GSK525762; NSC774829), temuterkib (LY3214996; NSC803410), venetoclax (NSC766270), alisertib (NSC759677), olaparib (NSC753686), talazoparib (NSC767125), erdafitinib (NSC781556), ipatasertib (NSC767898), cabozantinib (NSC761068), nintedanib (NSC756659), abemaciclib (NSC768073), docetaxel (NSC628503), trametinib (NSC758246), and sapanisertib (NSC764658) were obtained from the National Cancer Institute (NCI) Developmental Therapeutics Program Chemical Repository. The FDA-approved anticancer drug set is available from the Developmental Therapeutics Program. […] The stock solutions were prepared in dimethyl sulfoxide (DMSO, Sigma-Aldrich, St. Louis, MO, cat. D2650) at 800-fold the tested concentration and stored at -70 degrees C prior to their use. All drugs and investigational agents were tested over a range starting from a high concentration at or near the clinical Cmax and decreasing in half-log increments. If the clinical Cmax for an agent had not been determined, the highest concentration tested was 10 microM.
Cell Culture. All cells were maintained in an incubator at 37 degrees C and 5% CO2 with 95% humidity. The PDC lines were cultured according to standard operating procedures established by the NCI PDMR (https://pdmr.cancer.gov/sops/default.htm). Briefly, all PDCs were thawed and cultured in Matrigel-coated flasks prepared with a working solution of 1X Ham's F-12 nutrient mix, without supplementation (Invitrogen, Waltham, MA, cat. 11765054), 100 U/mL penicillin-streptomycin (Invitrogen, cat. 15140122), and 2.5% Matrigel (Corning Inc., Corning, NY, cat. 354248) for the first three passages. All PDCs were cultured in complete DMEM/F-12 media containing advanced DMEM/F-12 (Invitrogen, cat. 12634028), 4.9% defined fetal bovine serum, heat inactivated (HyClone Laboratories Inc., Logan, UT, cat. SH30070.03HI), 389 ng/mL hydrocortisone (Sigma-Aldrich, cat. H4001), 9.7 ng/mL human EGF recombinant protein (Invitrogen, cat. PHG0313), 23.4 microg/mL adenine (Sigma-Aldrich, cat. A2786), 97.3 U/mL penicillin-streptomycin (Invitrogen, cat. 15140122), 1.9 mM L-glutamine (Invitrogen, cat. 25030081), and 9.7 microM Y-27632 dihydrochloride (Tocris Bioscience, Bristol, United Kingdom, cat. 1254). The PDCs were cultured in complete DMEM/F12 media without 9.7 microM Y-27632 dihydrochloride for at least two passages prior to the screen. The established cell line HOP-62 was cultured in RPMI 1640 medium, HEPES (Invitrogen, cat. 22400105) with 10% defined fetal bovine serum (HyClone Laboratories Inc., cat. SH30070.03) and 2 mM L-glutamine (Invitrogen, cat. 25030081). The pooled donor HUVEC were cultured in endothelial cell growth medium 2 (PromoCell, Heidelberg, Germany, cat. C-22011) and the hMSC were cultured in mesenchymal stem cell growth medium 2 (PromoCell, cat. C-28009). For all experiments, HUVEC and hMSC were used at passages </=5, while the malignant cell lines were used at passages </=15. […]

[1] = second compound 0.1 µM, first compound 0.0316 µM
[2] = second compound 0.1 µM, first compound 0.1 µM
[3] = second compound 0.316 µM, first compound 0.0316 µM
[4] = second compound 0.316 µM, first compound 0.1 µM
[5] = second compound 1 µM, first compound 0.0316 µM
[6] = second compound 1 µM, first compound 0.1 µM
[7] = second compound 3.16 µM, first compound 0.0316 µM
[8] = second compound 3.16 µM, first compound 0.1 µM
[9] = second compound 10 µM, first compound 0.0316 µM
[10] = second compound 10 µM, first compound 0.1 µM
[11] = second compound 0.1 µM, first compound 0.316 µM
[12] = second compound 0.1 µM, first compound 1 µM
[13] = second compound 0.1 µM, first compound 3.16 µM
[14] = second compound 0.1 µM, first compound 10 µM
[15] = second compound 0.316 µM, first compound 0.316 µM
[16] = second compound 0.316 µM, first compound 1 µM
[17] = second compound 0.316 µM, first compound 3.16 µM
[18] = second compound 0.316 µM, first compound 10 µM
[19] = second compound 1 µM, first compound 0.316 µM
[20] = second compound 1 µM, first compound 1 µM
[21] = second compound 1 µM, first compound 3.16 µM
[22] = second compound 1 µM, first compound 10 µM
[23] = second compound 3.16 µM, first compound 0.316 µM
[24] = second compound 3.16 µM, first compound 1 µM
[25] = second compound 3.16 µM, first compound 3.16 µM
[26] = second compound 3.16 µM, first compound 10 µM
[27] = second compound 10 µM, first compound 0.316 µM
[28] = second compound 10 µM, first compound 1 µM
[29] = second compound 10 µM, first compound 3.16 µM
[30] = second compound 10 µM, first compound 10 µM
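Further: spheroids exposed to agents for 7 days.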
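Wherever viability, T/C is given: 100% = DMSO vehicle control viability.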

Row | Compound | pIC50 (second compound 0.1 µM) | pIC50 (second compound 0.316 µM) | pIC50 (second compound 1 µM) | pIC50 (second compound 3.16 µM) | pIC50 (second compound 10 µM) | viability, T/C [1] | viability, T/C [2] | viability, T/C [3] | viability, T/C [4] | viability, T/C [5] | viability, T/C [6] | viability, T/C [7] | viability, T/C [8] | viability, T/C [9] | viability, T/C [10] | viability, T/C [11] | viability, T/C [12] | viability, T/C [13] | viability, T/C [14] | viability, T/C [15] | other results
1 | CN(C)C/C=C/C(=O)Nc1cc2c(Nc3ccc(F)c(Cl)c3)ncnc2cc1O[C@H]1CCOC1 + C=CC(=O)N1CCN(c2nc(=O)n(-c3c(C)ccnc3C(C)C)c3nc(-c4c(O)cccc4F)c(F)cc23)C(C)C1 | 8.21 | 8.89 | 8.73 | 8.37 | 8.83 | 43.1% | 44% | 41.8% | 40.5% | 37.8% | 44.6% | 40.5% | 42.5% | 45.7% | 43.5% | – | – | – | – | – | viability, T/C (second compound 0.1 µM, first compound 0.000316 µM): 63.3%; viability, T/C (second compound 0.1 µM, first compound 0.001 µM): 50.9%; viability, T/C (second compound 0.1 µM, first compound 0.00316 µM): 49.6%; viability, T/C (second compound 0.1 µM, first compound 0.01 µM): 57.7%; viability, T/C (second compound 0.316 µM, first compound 0.000316 µM): 61.3%; viability, T/C (second compound 0.316 µM, first compound 0.001 µM): 50%; viability, T/C (second compound 0.316 µM, first compound 0.00316 µM): 47.3%; viability, T/C (second compound 0.316 µM, first compound 0.01 µM): 42.4%; viability, T/C (second compound 1 µM, first compound 0.000316 µM): 58.6%; viability, T/C (second compound 1 µM, first compound 0.001 µM): 54.2%; viability, T/C (second compound 1 µM, first compound 0.00316 µM): 50.5%; viability, T/C (second compound 1 µM, first compound 0.01 µM): 41.3%; viability, T/C (second compound 3.16 µM, first compound 0.000316 µM): 58.1%; viability, T/C (second compound 3.16 µM, first compound 0.001 µM): 58%; viability, T/C (second compound 3.16 µM, first compound 0.00316 µM): 50.1%; viability, T/C (second compound 3.16 µM, first compound 0.01 µM): 48%; viability, T/C (second compound 10 µM, first compound 0.000316 µM): 62.2%; viability, T/C (second compound 10 µM, first compound 0.001 µM): 53%; viability, T/C (second compound 10 µM, first compound 0.00316 µM): 44.6%; viability, T/C (second compound 10 µM, first compound 0.01 µM): 45.6%
2 | COC(=O)c1ccc2c(C(=Nc3ccc(N(C)C(=O)CN4CCN(C)CC4)cc3)c3ccccc3)c(O)[nH]c2c1 + C=CC(=O)N1CCN(c2nc(=O)n(-c3c(C)ccnc3C(C)C)c3nc(-c4c(O)cccc4F)c(F)cc23)C(C)C1 | 5.94 | 6.27 | 6.61 | 6.71 | > 7.50 | 53.3% | 55.6% | 56% | 52.4% | 57.9% | 57.6% | 58% | 56.6% | 43.1% | 32.9% | 53.7% | 50.7% | 42.6% | 19% | 52.6% | viability, T/C [16]: 46.8%; viability, T/C [17]: 28.4%; viability, T/C [18]: 16.6%; viability, T/C [19]: 48%; viability, T/C [20]: 28.2%; viability, T/C [21]: 21.4%; viability, T/C [22]: 16.8%; viability, T/C [23]: 46.4%; viability, T/C [24]: 27.9%; viability, T/C [25]: 22.1%; viability, T/C [26]: 13.8%; viability, T/C [27]: 29.6%; viability, T/C [28]: 18.8%; viability, T/C [29]: 17.8%; viability, T/C [30]: 12.5%
3 | O=C(c1cc(Cc2n[nH]c(=O)c3ccccc23)ccc1F)N1CCN(C(=O)C2CC2)CC1 + C=CC(=O)N1CCN(c2nc(=O)n(-c3c(C)ccnc3C(C)C)c3nc(-c4c(O)cccc4F)c(F)cc23)C(C)C1 | < 5.00 | 5.13 | 5.11 | < 5.00 | 5.76 | 64.6% | 61.7% | 67.1% | 59.7% | 60.8% | 59.9% | 64.2% | 66.2% | 48.3% | 50.1% | 62.9% | 64.5% | 64.7% | 50.3% | 61.3% | viability, T/C [16]: 55.9%; viability, T/C [17]: 55.3%; viability, T/C [18]: 46.7%; viability, T/C [19]: 59.2%; viability, T/C [20]: 61.7%; viability, T/C [21]: 60.3%; viability, T/C [22]: 39.2%; viability, T/C [23]: 61.1%; viability, T/C [24]: 61%; viability, T/C [25]: 58.7%; viability, T/C [26]: 46.2%; viability, T/C [27]: 60.3%; viability, T/C [28]: 55.6%; viability, T/C [29]: 45%; viability, T/C [30]: 32%
